Patent publication US20060287251A1, “Combination therapy for glycaemic control” (priority 2003, published 2006)

Assays:
[1] = biological target: T1, DPIV (N-terminal Xaa-Pro releasing activity) in human plasma (Homo sapiens, UniProt P27487); test: Ki-determination in human plasma; type: biochemical
T1 construct: Human plasma contains N-terminal Xaa-Pro releasing activity; from tissue; host or cells: human plasma
Protocol: Human plasma contains N-terminal Xaa-Pro releasing activity. 70 μL glutaminyl pyrrolidine or glutaminyl thiazolidine in an concentration range of 1*10^−5 M -1*10^−7 M (glutaminyl pyrrolidine) and 1*10^−6 M-1*10^−8 M (glutaminyl thiazolidine) respectively were admixed with 50 μL glycylprolyl-4-nitroaniline in different concentrations (0.4 mM, 0.2 mM, 0.1 mM, 0,05 mM) and 100 μl HEPES (40 mM, pH7.6). The assay mixture was pre-incubated at 30 ° C. for 5 min and 22 hours respectively. After pre-incubation, 50 μL human plasma were added and measurement of yellow color development due to 4-nitroaniline release was performed at 30° C. and λ=405 nm for 10 min using a plate reader ([HTS7000 plus, Applied Biosystems, Weiterstadt, Germany). The Ki-values were calculated using Graphit 4.0.15 (Erithacus Software, Ltd, UK) based on a competitive inhibition of DPIV by glutaminyl pyrrolidine or glutaminyl thiazolidine.

plasma DPIV activity = biological target: T2, plasma DPIV activity (Rattus norvegicus, UniProt P14740); test: Plasma DPIV inhibiting activity after intravasal and oral administration to Wistar rats; type: in vivo; settings: 100 mg/kg b.w. vs. placebo, oral and intra-vasal administration
T2 construct: from tissue; host or cells: plasma of male Wistar rats
T2 sequence (P14740 38-767 limits assumed): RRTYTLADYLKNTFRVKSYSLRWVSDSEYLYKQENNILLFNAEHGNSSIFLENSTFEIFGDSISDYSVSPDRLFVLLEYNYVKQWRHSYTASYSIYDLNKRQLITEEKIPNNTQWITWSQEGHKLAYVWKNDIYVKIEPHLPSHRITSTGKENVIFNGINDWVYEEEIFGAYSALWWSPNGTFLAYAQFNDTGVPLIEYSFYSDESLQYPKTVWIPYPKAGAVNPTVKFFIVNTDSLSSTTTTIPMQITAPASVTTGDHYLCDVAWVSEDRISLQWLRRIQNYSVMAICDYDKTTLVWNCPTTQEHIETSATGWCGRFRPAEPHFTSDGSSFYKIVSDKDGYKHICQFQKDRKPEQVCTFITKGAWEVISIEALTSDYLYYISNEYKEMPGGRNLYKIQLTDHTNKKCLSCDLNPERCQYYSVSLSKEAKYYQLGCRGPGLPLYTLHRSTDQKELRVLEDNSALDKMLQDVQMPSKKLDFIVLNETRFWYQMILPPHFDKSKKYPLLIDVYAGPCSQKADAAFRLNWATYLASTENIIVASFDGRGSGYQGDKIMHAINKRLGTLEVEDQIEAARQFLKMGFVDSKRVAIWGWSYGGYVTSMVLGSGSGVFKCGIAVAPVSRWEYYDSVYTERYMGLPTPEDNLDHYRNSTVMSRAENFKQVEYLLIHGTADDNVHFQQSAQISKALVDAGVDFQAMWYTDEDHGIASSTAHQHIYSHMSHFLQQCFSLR
Protocol: Male Wistar rats (Shoe: Wist(Sho)) with a body weight ranging between 250 and 350 g were purchased from Tierzucht Schönwalde (Schönwalde, Germany). Animals were single-caged under conventional conditions with controlled temperature (22±2° C.) on a 12/12 hours light/dark cycle (light on at 06:00 AM). Standard pelleted chow (ssniff® Soest, Germany) and tap water acidified with HCl were allowed ad libitum. After ≧one week of adaptation at the housing conditions, catheters were implanted into the carotid artery of Wistar rats under general anaesthesia (i.p. injection of 0.25 ml/kg b.w. Rompun®[2%], BayerVital, Germany and 0.5 ml/kg b.w. Ketamin 10, Atarost GmbH & Co., Twistringen, Germany). The animals were allowed to recover for one week. The catheters were flushed with heparin-saline (100 IU/ml) three times per week. In case of catheter dysfunction, a second catheter was inserted into the contra-lateral carotid artery of the respective rat. After one week of recovery from surgery, this animal was reintegrated into the study. In case of dysfunction of the second catheter, the animal was withdrawn from the study. […]
Statistical evaluations and graphics were performed with PRISM® 3.02 (GraphPad Software, Inc.). All parameters were analysed in a descriptive manner including mean and SD.

T1 sequence (P27487 39-766 limits assumed): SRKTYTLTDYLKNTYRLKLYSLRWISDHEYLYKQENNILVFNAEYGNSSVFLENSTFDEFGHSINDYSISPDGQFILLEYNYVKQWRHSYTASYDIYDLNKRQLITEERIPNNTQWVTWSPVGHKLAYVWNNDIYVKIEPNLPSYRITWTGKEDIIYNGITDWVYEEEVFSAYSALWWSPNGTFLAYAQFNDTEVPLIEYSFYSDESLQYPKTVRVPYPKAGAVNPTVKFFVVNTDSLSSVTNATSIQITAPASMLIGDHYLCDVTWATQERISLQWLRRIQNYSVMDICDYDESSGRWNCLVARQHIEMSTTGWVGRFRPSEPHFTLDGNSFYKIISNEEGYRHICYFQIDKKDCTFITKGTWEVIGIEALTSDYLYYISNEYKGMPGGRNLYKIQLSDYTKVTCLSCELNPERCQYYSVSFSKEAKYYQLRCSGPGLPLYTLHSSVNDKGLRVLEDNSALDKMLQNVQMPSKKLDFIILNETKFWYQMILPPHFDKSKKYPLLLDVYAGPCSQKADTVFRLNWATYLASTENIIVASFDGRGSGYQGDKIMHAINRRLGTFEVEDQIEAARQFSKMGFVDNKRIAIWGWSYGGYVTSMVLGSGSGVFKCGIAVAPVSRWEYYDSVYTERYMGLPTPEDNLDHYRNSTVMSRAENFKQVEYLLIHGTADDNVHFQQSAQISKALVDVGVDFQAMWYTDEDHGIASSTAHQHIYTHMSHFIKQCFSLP

Row | Structure (SMILES) | Ki ([1]; after 5 min pre-incubation) | Ki ([1]; after 22 hours pre-incubation) | plasma DPIV activity (plasma DPIV activity)
1 | NC(=O)CC[C@H](N)C(=O)N1CCCC1 [glutaminyl pyrrolidine] | 1300 nM | 1360 nM | inhibited plasma DPIV activity
2 | NC(=O)CC[C@H](N)C(=O)N1CCSC1 [glutaminyl thiazolidine] | 403 nM | 513 nM | inhibited plasma DPIV activity
